Measurements reported in paper PMC4476799, “Englerin A Agonizes the TRPC4/C5 Cation Channels to Inhibit Tumor Cell Line Proliferation” (PLoS ONE, 2015).
Read-outs that look alike come from different tables or passages of the source.

System: cancer cell lines from the cancer cell line encyclopedia (CCLE)
Experiment: Cell line profiling (CLiP) proliferation experiment
Type: cell-based
Details: Homo sapiens; for EC50: read-out: Inflection Point; for IC50: read-out: Crossing Point
Procedure: Compound profiling experiment and data analysis was performed as previously described. Data was imported and plotted using the Tibco Spotfire DXP application. Lines were categorized as sensitive, intermediate and refractory as follows: Amax<-40 & Inflection Point <2 ~ Sensitive, Amax>-20 & Inflection Point >10 ~ Refractory, all else were called Intermediate. Cancer Cell line HG-U133 Plus 2 data was processed and normalized as described. […] Five sets of refractory cell lines were generated from the pool of refractory cell lines trying to match the lineage composition of the set of sensitive cell lines. The limma package was used as previously described to perform the statistical comparison.

[1] = MKN-74, cell line MKN74 (stomach)
[2] = MM1.S, cell line MM1-S (haematopoietic_and_lymphoid_tissue)
[3] = MOLM-13, cell line MOLM-13 (haematopoietic_and_lymphoid_tissue)
[4] = MOLP-8, cell line MOLP-8 (haematopoietic_and_lymphoid_tissue)
[5] = MOLT-16, cell line MOLT-16 (haematopoietic_and_lymphoid_tissue)
[6] = MONO-MAC-6, cell line MONO-MAC-6 (haematopoietic_and_lymphoid_tissue)
[7] = MV4-11, cell line MV-4-11 (haematopoietic_and_lymphoid_tissue)
[8] = NCI-H82, NCI-H82, lung, small_cell_carcinoma
[9] = NCI-H441, NCI-H441, lung, adenocarcinoma
[10] = NCI-H647, NCI-H647, lung, mixed_adenosquamous_carcinoma
[11] = NCI-H650, NCI-H650, lung, bronchioloalveolar_adenocarcinoma
[12] = NCI-H716, NCI-H716, large_intestine, adenocarcinoma
[13] = NCI-H810, NCI-H810, lung, large_cell_carcinoma
[14] = NCI-H1092, cell line NCI-H1092 (lung)
[15] = NCI-H1299, cell line NCI-H1299 (lung)
[16] = NCI-H1563, cell line NCI-H1563 (lung)
[17] = NCI-H1581, cell line NCI-H1581 (lung)
[18] = NCI-H1666, cell line NCI-H1666 (lung)
[19] = NCI-H1703, cell line NCI-H1703 (lung)
[20] = NCI-H1734, cell line NCI-H1734 (lung)
[21] = NCI-H1793, NCI-H1793, lung, adenocarcinoma
[22] = NCI-H2122, NCI-H2122, lung, adenocarcinoma
[23] = NCI-H2405, NCI-H2405, lung, adenocarcinoma
[24] = NCI-H3255, NCI-H3255, lung, adenocarcinoma
[25] = NUGC-4, NUGC-4, stomach, signet_ring_adenocarcinoma
[26] = OC-314, OC 314, ovary, serous_carcinoma
[27] = OCI-LY19, OCI-LY-19, haematopoietic_and_lymphoid_tissue, diffuse_large_B_cell_lymphoma
[28] = P12-Ichikawa, P12-ICHIKAWA cells
[29] = P12-Ichikawa, cell line P12-ICHIKAWA

## CC(C)[C@@]12C[C@@H](O)[C@@](C)(O1)[C@@H]1CC[C@@H](C)[C@H]1[C@@H]2OC(=O)/C=C/c1ccccc1 [Englerin B]
MIA PaCa-2, cell line MIA PaCa-2 (pancreas)
  EC50: 11.3 µM
MKN-1, cell line MKN1 (stomach)
  IC50: > 30 µM
MKN-1, cell line MKN1
  IC50: > 30 µM
MKN-7, MKN7 (stomach)
  IC50: > 30 µM
MKN-7, cell line MKN7 (stomach)
  IC50: > 30 µM
MKN-45, MKN-45 (stomach)
  IC50: > 30 µM
MKN-45, cell line MKN-45 (stomach)
  IC50: > 30 µM
[1]
  IC50: 27.5 µM
  EC50: 27.5 µM
[2]
  IC50: > 30 µM
  EC50: 25.6 µM
MM1.S, cell line MM1-S
  IC50: > 30 µM
MOLM-13, MOLM-13 (haematopoietic_and_lymphoid_tissue)
  EC50: 13.1 µM
[3]
  IC50: 13.4 µM
  EC50: 13.1 µM
[4]
  IC50: 16.6 µM
  EC50: 12.1 µM
MOLP-8, cell line MOLP-8
  IC50: 16.6 µM
[5]
  IC50: 23.3 µM
  EC50: 23.3 µM
[6]
  IC50: 18.4 µM
  EC50: 18.4 µM
MSTO-211H, cell line MSTO-211H (pleura)
  IC50: 27.7 µM
MV4-11, MV-4-11 cells
  IC50: 11.4 µM
  EC50: 11.4 µM
[7]
  IC50: 11.4 µM
  EC50: 11.4 µM
Malme-3M, Malme-3M (skin)
  IC50: > 30 µM
Malme-3M, Malme-3M cells
  IC50: > 30 µM
Maver1, MAVER-1 (haematopoietic_and_lymphoid_tissue)
  IC50: 13.2 µM
MeWo, cell line MeWo (skin)
  IC50: 26.2 µM
  EC50: 22.6 µM
NALM-6, cell line NALM-6 (haematopoietic_and_lymphoid_tissue)
  IC50: 11.8 µM
NCI-H28, NCI-H28, pleura, NS
  IC50: 11.9 µM
  EC50: 10.5 µM
[8]
  IC50: 19.6 µM
  EC50: 19.6 µM
NCI-H82, NCI-H82 cells
  IC50: 19.6 µM
  EC50: 19.6 µM
NCI-H146, NCI-H146 cells
  IC50: > 30 µM
NCI-H146, cell line NCI-H146 (lung)
  IC50: > 30 µM
NCI-H226, NCI-H226, lung, squamous_cell_carcinoma
  IC50: > 30 µM
NCI-H226, cell line NCI-H226
  IC50: > 30 µM
NCI-H358, NCI-H358, lung, bronchioloalveolar_adenocarcinoma
  IC50: 22.8 µM
[9]
  IC50: > 30 µM
  EC50: 12.7 µM
NCI-H441, cell line NCI-H441
  IC50: > 30 µM
NCI-H460, NCI-H460, lung, large_cell_carcinoma
  IC50: > 30 µM
NCI-H460, cell line NCI-H460
  IC50: > 30 µM
NCI-H520, NCI-H520, lung, squamous_cell_carcinoma
  IC50: > 30 µM
NCI-H520, NCI-H520 cells
  IC50: > 30 µM
NCI-H596, NCI-H596, lung, mixed_adenosquamous_carcinoma
  IC50: > 30 µM
NCI-H596, NCI-H596 cells
  IC50: > 30 µM
[10]
  IC50: 15 µM
  EC50: 15 µM
[11]
  IC50: 15.8 µM
  EC50: 15.8 µM
NCI-H650, NCI-H650 cells
  IC50: 15.8 µM
  EC50: 15.8 µM
NCI-H661, NCI-H661, lung, large_cell_carcinoma
  IC50: > 30 µM
NCI-H661, NCI-H661 cells
  IC50: > 30 µM
[12]
  IC50: 29.8 µM
  EC50: 21.4 µM
NCI-H716, NCI-H716 cells
  EC50: 21.4 µM
NCI-H727, NCI-H727, lung, NS
  IC50: > 30 µM
NCI-H727, cell line NCI-H727
  IC50: > 30 µM
[13]
  IC50: 26.6 µM
  EC50: 21.1 µM
NCI-H838, NCI-H838, lung, adenocarcinoma
  IC50: > 30 µM
NCI-H838, NCI-H838 cells
  IC50: > 30 µM
NCI-H1048, cell line NCI-H1048 (lung)
  IC50: 4.81 µM
[14]
  IC50: > 30 µM
  EC50: 3.48 µM
NCI-H1092, cell line NCI-H1092
  IC50: > 30 µM
[15]
  IC50: 13 µM
  EC50: 11.3 µM
NCI-H1355, cell line NCI-H1355 (lung)
  IC50: 10.7 µM
NCI-H1437, NCI-H1437 cells
  IC50: > 30 µM
NCI-H1437, cell line NCI-H1437 (lung)
  IC50: > 30 µM
[16]
  IC50: > 30 µM
  EC50: 9.9 µM
NCI-H1563, cell line NCI-H1563
  IC50: > 30 µM
NCI-H1573, cell line NCI-H1573 (lung)
  IC50: 1.5 µM
NCI-H1581, NCI-H1581 cells
  EC50: 15.4 µM
[17]
  IC50: 14.7 µM
  EC50: 15.4 µM
NCI-H1623, cell line NCI-H1623 (lung)
  IC50: > 30 µM
NCI-H1623, cell line NCI-H1623
  IC50: > 30 µM
NCI-H1650, NCI-H1650 (lung)
  IC50: 26.2 µM
NCI-H1650, cell line NCI-H1650 (lung)
  IC50: 26.2 µM
NCI-H1651, NCI-H1651 cells
  IC50: > 30 µM
NCI-H1651, cell line NCI-H1651 (lung)
  IC50: > 30 µM
[18]
  IC50: 22.4 µM
  EC50: 22.8 µM
NCI-H1693, cell line NCI-H1693 (lung)
  IC50: > 30 µM
NCI-H1693, cell line NCI-H1693
  IC50: > 30 µM
[19]
  IC50: 14.9 µM
  EC50: 23.1 µM
[20]
  IC50: 19.6 µM
  EC50: 19.6 µM
NCI-H1792, NCI-H1792, lung, adenocarcinoma
  IC50: 24.9 µM
NCI-H1792, cell line NCI-H1792 (lung, adenocarcinoma)
  IC50: 24.9 µM
[21]
  IC50: > 30 µM
  EC50: 22.5 µM
NCI-H1793, cell line NCI-H1793
  IC50: > 30 µM
NCI-H1944, NCI-H1944, lung, adenocarcinoma
  IC50: 15.8 µM
NCI-H1944, cell line NCI-H1944
  IC50: 15.8 µM
NCI-H1975, NCI-H1975, lung, adenocarcinoma
  IC50: > 30 µM
NCI-H1975, NCI-H1975 cells
  IC50: > 30 µM
[22]
  IC50: > 30 µM
  EC50: 10.6 µM
NCI-H2122, cell line NCI-H2122
  IC50: > 30 µM
NCI-H2126, NCI-H2126, lung, adenocarcinoma
  IC50: > 30 µM
NCI-H2126, NCI-H2126 cells
  IC50: > 30 µM
NCI-H2170, NCI-H2170, lung, squamous_cell_carcinoma
  IC50: > 30 µM
NCI-H2170, cell line NCI-H2170
  IC50: > 30 µM
[23]
  IC50: > 30 µM
  EC50: 14.6 µM
NCI-H2405, cell line NCI-H2405
  IC50: > 30 µM
NCI-H2452, NCI-H2452, pleura, NS
  IC50: > 30 µM
NCI-H2452, cell line NCI-H2452
  IC50: > 30 µM
[24]
  IC50: 27 µM
  EC50: 27 µM
NCI-H3255, NCI-H3255 cells
  IC50: 27 µM
  EC50: 27 µM
NUGC-3, NUGC-3, stomach, NS
  IC50: > 30 µM
NUGC-3, NUGC-3 cells
  IC50: > 30 µM
[25]
  IC50: 22 µM
  EC50: 15.9 µM
NUGC-4, NUGC-4 cells
  EC50: 15.9 µM
OAW-42, OAW42, ovary, adenocarcinoma
  IC50: > 30 µM
OAW-42, OAW42 cells
  IC50: > 30 µM
[26]
  IC50: > 30 µM
  EC50: 14.9 µM
OC-314, OC 314 cells
  IC50: > 30 µM
  EC50: 14.9 µM
OCI-AML2, OCI-AML2, haematopoietic_and_lymphoid_tissue, acute_myeloid_leukaemia
  IC50: 16.1 µM
OCI-AML-3, OCI-AML3, haematopoietic_and_lymphoid_tissue, acute_myeloid_leukaemia
  IC50: 18.2 µM
[27]
  IC50: 14.2 µM
  EC50: 14.8 µM
OCI-LY19, OCI-LY-19 cells
  EC50: 14.8 µM
OCI-Ly3, OCI-LY3, haematopoietic_and_lymphoid_tissue, diffuse_large_B_cell_lymphoma
  IC50: 13.3 µM
OE19, OE19, oesophagus, adenocarcinoma
  IC50: 20.4 µM
OS-RC-2, OS-RC-2 cells
  IC50: > 30 µM
  EC50: 11.5 µM
OS-RC-2, cell line OS-RC-2
  IC50: > 30 µM
  EC50: 11.5 µM
OV-90, OV-90 cells
  IC50: > 30 µM
OV-90, cell line OV-90
  IC50: > 30 µM
OVCAR-4, cell line OVCAR-4
  IC50: 29.6 µM
OVCAR-8, cell line OVCAR-8
  IC50: 20.7 µM
OVSAHO, OVSAHO cells
  EC50: 18.1 µM
OVSAHO, cell line OVSAHO
  IC50: 23.6 µM
  EC50: 18.1 µM
P3HR-1, cell line P3HR-1
  IC50: 25.4 µM
[28]
  IC50: 19.1 µM
  EC50: 19.1 µM
[29]
  IC50: 19.1 µM
  EC50: 19.1 µM
P31-FUJ, cell line P31/FUJ
  IC50: 19.6 µM
PANC-1, cell line PANC-1
  IC50: 23.8 µM
PANC-03-27, cell line Panc 03.27
  IC50: 21.1 µM
PC-14, cell line PC-14
  IC50: 21.4 µM
PF-382, PF-382 cells
  EC50: 13.1 µM
PF-382, cell line PF-382
  IC50: 16.6 µM
  EC50: 13.1 µM
PLC-PRF-5, PLC/PRF/5 (liver)
  IC50: 14.5 µM
PLC-PRF-5, cell line PLC/PRF/5
  IC50: 14.5 µM
PSN1, cell line PSN1
  IC50: 29.7 µM
Panc 02.03, Panc 02.03 cells
  IC50: > 30 µM
Panc 02.03, cell line Panc 02.03
  IC50: > 30 µM
Panc 04.03, Panc 04.03 cells
  IC50: > 30 µM
Panc 04.03, cell line Panc 04.03
  IC50: > 30 µM
Panc1005, Panc 10.05 cells
  EC50: 10.9 µM
Panc1005, cell line Panc 10.05
  IC50: 13 µM
  EC50: 10.9 µM
RD, RD cells
  IC50: > 30 µM
REH, Reh cells
  IC50: 21.5 µM
  EC50: 21.5 µM
RPMI 8402, RPMI-8402 cells
  IC50: 19.1 µM
RPMI 8402, cell line RPMI-8402
  IC50: 19.1 µM
RPMI-7951, cell line RPMI-7951
  IC50: 19.7 µM
  EC50: 13.7 µM
RPMI-8226, cell line RPMI 8226
  IC50: 16.9 µM
